Test results reported in patent US20260184663A1, “INDENE COMPOUNDS, PHARMACEUTICAL COMPOSITIONS THEREOF, AND THEIR THERAPEUTIC APPLICATIONS” (NucMito Pharmaceuticals co. Ltd., priority 2022, published 2026).

Experiments:
Assay type in all cases: cell-based
[1] = test system: A431 (epidermoid carcinoma); experiment: Antiproliferative activity (CCK-8 cell viability), A431; details: Homo sapiens, 72 h, read-out: Antiproliferative activity in cancerous cells, A431 (inhibition of cell growth); for inhibition at 3.3 µM: A-431, Compound concentration: 3.3 μM; for inhibition at 10 µM: A-431, Compound concentration: 10 μM; for inhibition at 30 µM: A-431, Compound concentration: 30 μM
Procedure, shortened: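 This growth inhibition assay used A431 cells maintained in Dulbecco's modified Eagle's medium plus 10% fetal bovine serum. Cells were seeded in 96-well plates, treated with compound for 72 h at 37° C., and then given 10 μL CCK-8 solution. After a further 4 h, absorbance was read at 450 nm.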

[2] = test system: MDA-MB-231 (breast cancer); experiment: Antiproliferative activity (CCK-8 cell viability), MDA-MB-231; details: Homo sapiens, 72 h, read-out: Antiproliferative activity in cancerous cells, MDA-MB-231 (inhibition of cell growth); for inhibition at 3.3 µM: Compound concentration: 3.3 μM; for inhibition at 10 µM: Compound concentration: 10 μM; for inhibition at 30 µM: Compound concentration: 30 μM
Procedure, shortened: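 Growth inhibition of human MDA-MB-231 breast cancer cells was assessed with a Cell Counting Kit-8. Cells cultured in DMEM plus 10% FBS were seeded at 2,000-5,000 cells/well, treated after attachment, and kept 72 h at 37° C. CCK-8 solution (10 μL) was added for 4 h, and absorbance at 450 nm was compared with DMSO-treated controls.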

[3] = test system: SW480 (colon cancer); experiment: Antiproliferative activity (CCK-8 cell viability), SW480; details: Homo sapiens, 72 h, read-out: Antiproliferative activity in cancerous cells, SW480 (inhibition of cell growth); for inhibition at 3.3 µM: Compound concentration: 3.3 μM; for inhibition at 10 µM: Compound concentration: 10 μM; for inhibition at 30 µM: Compound concentration: 30 μM
Procedure, shortened: (§1)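 Growth inhibition graded in bands from percent viability against DMSO vehicle, read as CCK-8 absorbance at 450 nm. Compound tested at 3.3, 10 or 30 μM for 72 h, 37 °C; media contained 10% FBS: DMEM for HepG2/SW480, MEM for HeLa, F-12K for A549.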

[4] = test system: HepG2 (liver cancer); experiment: Antiproliferative activity (CCK-8 cell viability), HepG2; details: Homo sapiens, 72 h, read-out: Antiproliferative activity in cancerous cells, HepG2 (inhibition of cell growth); for inhibition at 3.3 µM: Compound concentration: 3.3 μM; for inhibition at 10 µM: Compound concentration: 10 μM; for inhibition at 30 µM: Compound concentration: 30 μM
Procedure, shortened: as §1

[5] = test system: B16F10 (malignant melanoma); experiment: Antiproliferative activity (CCK-8 cell viability), B16F10; details: Mus musculus, 72 h, read-out: Antiproliferative activity in cancerous cells, B16F10 (inhibition of cell growth); for inhibition at 3.3 µM: B16-F10, Compound concentration: 3.3 μM; for inhibition at 10 µM: B16-F10, Compound concentration: 10 μM; for inhibition at 30 µM: B16-F10, Compound concentration: 30 μM
Procedure, shortened: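 Cell growth inhibition was measured in B16F10 malignant melanoma cells with a Cell Counting Kit-8 viability assay. Cells were maintained in DMEM plus 10% fetal bovine serum, seeded at 2,000-5,000 cells/well in 96-well plates, and treated for 72 h at 37° C. Viability was expressed relative to DMSO-treated vehicle control wells.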

[6] = test system: A549 (lung adenocarcinoma); experiment: Antiproliferative activity (CCK-8 cell viability), A549; details: Homo sapiens, 72 h, read-out: Antiproliferative activity in cancerous cells, A549 (inhibition of cell growth); for inhibition at 3.3 µM: Compound concentration: 3.3 μM; for inhibition at 10 µM: Compound concentration: 10 μM; for inhibition at 30 µM: Compound concentration: 30 μM
Procedure, shortened: as §1

[7] = test system: HeLa (cervical cancer); experiment: Antiproliferative activity (CCK-8 cell viability), HeLa; details: Homo sapiens, 72 h, read-out: Antiproliferative activity in cancerous cells, HELA (inhibition of cell growth); for inhibition at 3.3 µM: Compound concentration: 3.3 μM; for inhibition at 10 µM: Compound concentration: 10 μM; for inhibition at 30 µM: Compound concentration: 30 μM
Procedure, shortened: as §1

For `CC1=C(CC(=O)O)c2cc(F)ccc2/C1=C\c1ccc(C(=O)c2cc3ccccc3s2)cc1` [C303, (Z)-2-(1-(4-(Benzo[b]thiophene-2-carbonyl)benzylidene)-5-fluoro-2-methyl-1H-inden-3-yl)acetic acid], the inhibition at 3.3 µM [1] was under 30%, the inhibition at 10 µM [1] was at least 50% and the inhibition at 30 µM [1] was at least 50%. For the same compound, the inhibition at 3.3 µM [2] was at least 50%, the inhibition at 10 µM [2] was at least 50% and the inhibition at 30 µM [2] was at least 50%. It also gave an inhibition at 3.3 µM [3] of 30 to 50%, an inhibition at 10 µM [3] of at least 50% and an inhibition at 30 µM [3] of at least 50%. For the same compound, the inhibition at 3.3 µM [4] was 30 to 50%, the inhibition at 10 µM [4] was at least 50% and the inhibition at 30 µM [4] was at least 50%. The inhibition at 3.3 µM [5] was at least 50%, the inhibition at 10 µM [5] was at least 50% and the inhibition at 30 µM [5] was at least 50%. The inhibition at 3.3 µM [6] was 30 to 50%, the inhibition at 10 µM [6] was at least 50% and the inhibition at 30 µM [6] was at least 50%. For the same compound, the inhibition at 3.3 µM [7] was 30 to 50%, the inhibition at 10 µM [7] was at least 50% and the inhibition at 30 µM [7] was at least 50%.

`CC1=C(CC(=O)O)c2cc(F)ccc2/C1=C\c1cccc(C(=O)c2ccccc2)c1` [C304, (Z)-2-(1-(3-Benzoylbenzylidene)-5-fluoro-2-methyl-1H-inden-3-yl)acetic acid] gave an inhibition at 3.3 µM [1] of under 30%, an inhibition at 10 µM [1] of 30 to 50% and an inhibition at 30 µM [1] of at least 50%. It also gave an inhibition at 3.3 µM [2] of under 30%, an inhibition at 10 µM [2] of 30 to 50% and an inhibition at 30 µM [2] of at least 50%. It also gave an inhibition at 3.3 µM [3] of under 30%, an inhibition at 10 µM [3] of at least 50% and an inhibition at 30 µM [3] of at least 50%. The inhibition at 3.3 µM [4] was 30 to 50%, the inhibition at 10 µM [4] was at least 50% and the inhibition at 30 µM [4] was at least 50%. The inhibition at 3.3 µM [5] was under 30%, the inhibition at 10 µM [5] was at least 50% and the inhibition at 30 µM [5] was at least 50%. The inhibition at 3.3 µM [6] was under 30%, the inhibition at 10 µM [6] was at least 50% and the inhibition at 30 µM [6] was at least 50%. It also gave an inhibition at 3.3 µM [7] of 30 to 50%, an inhibition at 10 µM [7] of at least 50% and an inhibition at 30 µM [7] of at least 50%.

`CC1=C(CC(=O)O)c2cc(F)ccc2/C1=C\c1ccc(C(=O)c2ccc(F)cc2)cc1` [C305, (Z)-2-(5-Fluoro-1-(4-(4-fluorobenzoyl)benzylidene)-2-methyl-1H-inden-3-yl)acetic acid] showed an inhibition at 3.3 µM [1] of 30 to 50%, an inhibition at 10 µM [1] of at least 50% and an inhibition at 30 µM [1] of at least 50%. It also gave an inhibition at 3.3 µM [2] of at least 50%, an inhibition at 10 µM [2] of at least 50% and an inhibition at 30 µM [2] of at least 50%. For the same compound, the inhibition at 3.3 µM [3] was 30 to 50%, the inhibition at 10 µM [3] was at least 50% and the inhibition at 30 µM [3] was at least 50%. It also gave an inhibition at 3.3 µM [4] of 30 to 50%, an inhibition at 10 µM [4] of at least 50% and an inhibition at 30 µM [4] of at least 50%. For the same compound, the inhibition at 3.3 µM [5] was under 30%, the inhibition at 10 µM [5] was at least 50% and the inhibition at 30 µM [5] was at least 50%. For the same compound, the inhibition at 3.3 µM [6] was under 30%, the inhibition at 10 µM [6] was at least 50% and the inhibition at 30 µM [6] was at least 50%. For the same compound, the inhibition at 3.3 µM [7] was 30 to 50%, the inhibition at 10 µM [7] was at least 50% and the inhibition at 30 µM [7] was at least 50%.

`COc1ccc(C(=O)c2ccc(/C=C3/C(C)=C(CC(=O)O)c4cc(F)ccc43)cc2)cc1` [C306, (Z)-2-(5-Fluoro-1-(4-(4-methoxybenzoyl)benzylidene)-2-methyl-1H-inden-3-yl)acetic acid] showed an inhibition at 3.3 µM [1] of at least 50%, an inhibition at 10 µM [1] of at least 50% and an inhibition at 30 µM [1] of at least 50%. The inhibition at 3.3 µM [2] was at least 50%, the inhibition at 10 µM [2] was at least 50% and the inhibition at 30 µM [2] was at least 50%. For the same compound, the inhibition at 3.3 µM [3] was 30 to 50%, the inhibition at 10 µM [3] was 30 to 50% and the inhibition at 30 µM [3] was at least 50%. For the same compound, the inhibition at 3.3 µM [4] was 30 to 50%, the inhibition at 10 µM [4] was at least 50% and the inhibition at 30 µM [4] was at least 50%. For the same compound, the inhibition at 3.3 µM [5] was under 30%, the inhibition at 10 µM [5] was at least 50% and the inhibition at 30 µM [5] was at least 50%. For the same compound, the inhibition at 3.3 µM [6] was under 30%, the inhibition at 10 µM [6] was 30 to 50% and the inhibition at 30 µM [6] was 30 to 50%. The inhibition at 3.3 µM [7] was 30 to 50%, the inhibition at 10 µM [7] was at least 50% and the inhibition at 30 µM [7] was at least 50%.

With `CC1=C(CC(=O)O)c2cc(F)ccc2/C1=C\c1ccc(C(=O)c2ccccc2)cc1` [C307, (Z)-2-(1-(4-Benzoylbenzylidene)-5-fluoro-2-methyl-1H-inden-3-yl)acetic acid] the inhibition at 3.3 µM [1] was 30 to 50%, the inhibition at 10 µM [1] was at least 50% and the inhibition at 3.3 µM [2] was 30 to 50%. It also gave an inhibition at 10 µM [2] of at least 50%, an inhibition at 3.3 µM [3] of under 30% and an inhibition at 10 µM [3] of at least 50%. It also gave an inhibition at 3.3 µM [4] of 30 to 50%, an inhibition at 10 µM [4] of at least 50% and an inhibition at 3.3 µM [5] of under 30%. The inhibition at 10 µM [5] was at least 50%, the inhibition at 3.3 µM [6] was under 30% and the inhibition at 10 µM [6] was at least 50%. For the same compound, the inhibition at 3.3 µM [7] was under 30% and the inhibition at 10 µM [7] was at least 50%.

`CC1=C(CC(=O)O)c2cc(F)ccc2/C1=C\c1ccc(C(=O)c2cc3ccccc3o2)cc1` [C309, (Z)-2-(1-(4-(Benzofuran-2-carbonyl)benzylidene)-5-fluoro-2-methyl-1H-inden-3-yl)acetic acid] gave an inhibition at 3.3 µM [1] of 30 to 50%, an inhibition at 10 µM [1] of at least 50% and an inhibition at 30 µM [1] of at least 50%. It also gave an inhibition at 3.3 µM [2] of 30 to 50%, an inhibition at 10 µM [2] of 30 to 50% and an inhibition at 30 µM [2] of at least 50%. For the same compound, the inhibition at 3.3 µM [3] was under 30%, the inhibition at 10 µM [3] was at least 50% and the inhibition at 30 µM [3] was at least 50%. The inhibition at 3.3 µM [4] was under 30%, the inhibition at 10 µM [4] was at least 50% and the inhibition at 30 µM [4] was at least 50%. The inhibition at 3.3 µM [5] was under 30%, the inhibition at 10 µM [5] was at least 50% and the inhibition at 30 µM [5] was at least 50%. For the same compound, the inhibition at 3.3 µM [6] was under 30%, the inhibition at 10 µM [6] was 30 to 50% and the inhibition at 30 µM [6] was at least 50%. It also gave an inhibition at 3.3 µM [7] of 30 to 50%, an inhibition at 10 µM [7] of at least 50% and an inhibition at 30 µM [7] of at least 50%.

Compound `CC1=C(CC(=O)O)c2cc(F)ccc2/C1=C\c1cccc(C(O)c2ccccc2)c1` (centres unmarked) [C310, (Z)-2-(5-Fluoro-1-(3-(hydroxy(phenyl)methyl)benzylidene)-2-methyl-1H-inden-3-yl)acetic acid] has an inhibition at 3.3 µM [1] of at least 50%, an inhibition at 10 µM [1] of 30 to 50% and an inhibition at 30 µM [1] of at least 50%. For the same compound, the inhibition at 3.3 µM [2] was under 30%, the inhibition at 10 µM [2] was at least 50% and the inhibition at 30 µM [2] was at least 50%. For the same compound, the inhibition at 3.3 µM [3] was at least 50%, the inhibition at 10 µM [3] was at least 50% and the inhibition at 30 µM [3] was at least 50%. For the same compound, the inhibition at 3.3 µM [4] was 30 to 50%, the inhibition at 10 µM [4] was at least 50% and the inhibition at 30 µM [4] was at least 50%. The inhibition at 3.3 µM [5] was under 30%, the inhibition at 10 µM [5] was 30 to 50% and the inhibition at 30 µM [5] was at least 50%. It also gave an inhibition at 3.3 µM [6] of 30 to 50%, an inhibition at 10 µM [6] of 30 to 50% and an inhibition at 30 µM [6] of at least 50%. For the same compound, the inhibition at 3.3 µM [7] was at least 50%, the inhibition at 10 µM [7] was at least 50% and the inhibition at 30 µM [7] was at least 50%.
